Data set [1] can be described thus: Plasma pharmacokinetics of irinotecan and SN-38 in patients. The settings on record: for Tlast: median; for Tmax: median (range), n=18–20 paired. On the procedure: (§1) In cycle 1, sunitinib administration started on day 2. Both agents were evaluated in combination on cycle 2 day 1; samples were drawn before drug administration and at 1, 1.5, 2, 4, 6, 8, 10, and 24 hours post-dose.
(§2) Pharmacokinetic parameter values were calculated for each subject by noncompartmental analysis of concentration–time data using WinNonlin version 4.1 (http://pharmacy.ucsf.edu/irc/pdfs/wul_users_guide.pdf). […] Summary descriptives of pharmacokinetic values were presented only for paired observations with respect to each analyte. In the case where the dose for one of the paired observations was different from the other observation, dose correction to the intended dose was performed (correction factor: intended dose/actual dose). Dose correction to the MTD was performed. Individual patient trough plasma concentrations were summarised per cycle and study day. All concentrations that were below the limits of quantitation (BLQ) were set to zero before computation of descriptive statistics (BLQ values were excluded from the calculations of geometric means and the associated 95% confidence intervals).
(§3) Standard plasma pharmacokinetic parameters were used including the maximum plasma concentration (Cmax), time to Cmax (Tmax), area under the plasma concentration–time curve to the time of the last measurable concentration (AUC0–last) or infinity (AUC0–∞), clearance, and terminal elimination half-life (t1/2).

The conditions of data set [2]: for Patients requiring dose delay / Patients with dose reduction: irinotecan; for Patients requiring dose delay: cycles 1 and 2; for Patients with dose reduction: first two cycles. As to the method: Seven days before the start of cycle 1, a single day's dose of sunitinib was administered to allow for the collection of samples for pharmacokinetic analysis.
In addition, prophylactic use of hematopoietic growth factors to support neutrophil or platelet counts was not recommended in cycle 1, but could be used in subsequent cycles.
Patients underwent regular physical examinations (usually on day 1 of each treatment cycle), laboratory tests (blood, usually on days 1 and 15 of each cycle, and urinalysis) and 12-lead electrocardiogram (at screening, at steady state level of sunitinib on cycle 2 day 1, and as clinically indicated in subsequent cycles). […] Response Evaluation Criteria for Solid Tumors version 1.0 ([Therasse et al 2000]) was used, requiring repeat imaging studies ⩾4 weeks after the initial documentation of response.

A further data set is described as follows: clinical. The settings on record: human, in vivo. On the procedure: Pharmacokinetic analysis was carried out in a central laboratory, and pharmacokinetic parameter values were estimated using noncompartmental methods. Human potassium EDTA plasma pharmacokinetic samples were analysed for sunitinib and SU012662 and total drug (sunitinib plus SU012662) concentrations at BASi (West Lafayette, IN, USA) with the use of a validated, sensitive, and specific liquid chromatographic-tandem mass spectrometric method.
as §1, §2, §3

The mark [3] stands for this setting: C2D1/C1D1 (sunitinib+irinotecan relative to irinotecan alone), both cohorts combined.

Where two headings read alike, the source gives them in different places.

In the case of `CCc1c2c(nc3ccc(OC(=O)N4CCC(N5CCCCC5)CC4)cc13)-c1cc3c(c(=O)n1C2)COC(=O)[C@]3(O)CC` [Irinotecan, irinotecan], in data set [1] (Irinotecan alone C1D1), the Tlast stood at 24.0 h. Moreover, the Tlast in data set [1] (Sunitinib+irinotecan C2D1) stood at 24.0 h. For the same molecule, in data set [1] (human, in vivo), the “AUC0–last” value is on record as 16.9 (33.3) μg h ml^−1 and the “AUC0–∞” value is 18.1 (34.0) μg h ml^−1. The Cmax in data set [1] (human, in vivo, 250 mg) was found to be 2900 ng/mL. Further, in data set [1] (human, in vivo, AUC0–last), the AUC(0-t) (in general, exposure summed from dosing to a finite time, without extrapolation to infinity) turned out to be 14900 ng·h/mL. Further, in data set [1] (human, in vivo, AUC0–∞), the total exposure AUC(0-inf) – broadly, the area under the concentration-time curve extrapolated to infinity – amounted to 15900 ng·h/mL. In addition, the “Maximum tolerated dose (MTD)” value in data set [2] (irinotecan day 1 of 21-day cycle, with sunitinib 25 mg per day days 1–14) worked out at 250 mg m^−2. Also, in data set [2] (cohort 1), the “Patients requiring dose delay” value is given as “four” and the “Patients with dose reduction” value is “six”. Further, in data set [2] (cohort 2), the “Patients requiring dose delay” value is “one” and the “Patients with dose reduction” value is “one”.
For the molecule `CCN(CC)CCNC(=O)c1c(C)[nH]c(/C=C2\C(=O)Nc3ccc(F)cc32)c1C` [Sunitinib, sunitinib], in the data set “clinical”, the AUC(0-t) was 226 ng·h/mL, the Cmax amounted to 13 ng/mL and the Tlast is 24.0 h. In the data set “clinical” (25 mg), the AUC(0-t) turned out to be 266 ng·h/mL and the Cmax is 16.3 ng/mL. In data set [2] (sunitinib days 1–14 of 21-day cycle, with irinotecan 250 mg m^−2 day 1), the “Maximum tolerated dose (MTD)” value was found to be 25 mg per day.
As to `CCc1c2c(nc3ccc(O)cc13)-c1cc3c(c(=O)n1C2)COC(=O)[C@]3(O)CC` [SN-38], in data set [1] (setting [3]), the “Geometric mean ratio of AUC0–last” value came out at 1.20. Moreover, the “Geometric mean ratio of Cmax” value in data set [1] (setting [3]) amounted to 1.13. Also, the “AUC0–last” value in data set [1] (Irinotecan alone C1D1, mean (CV%)) is given as 0.31 (61.7) μg h ml^−1; in data set [1] (Sunitinib+irinotecan C2D1, mean (CV%)) it was 0.36 (52.8) μg h ml^−1. Besides, the Cmax in data set [1] (Irinotecan alone C1D1, mean (CV%), dose corrected to 250 mg m^−2) is reported as 0.03 (51.4) μg ml^−1; in data set [1] (Sunitinib+irinotecan C2D1, mean (CV%), dose corrected to 250 mg m^−2) it was 0.04 (50.0) μg ml^−1. Further, the Tlast in data set [1] (Irinotecan alone C1D1) and in data set [1] (Sunitinib+irinotecan C2D1) was 24.0 h each time. Also, the Tmax is 1.1 (1.0–4.2) h in data set [1] (Irinotecan alone C1D1) and 1.5 (0.9–4.1) h in data set [1] (Sunitinib+irinotecan C2D1).
Turning to `CCNCCNC(=O)c1c(C)[nH]c(/C=C2\C(=O)Nc3ccc(F)cc32)c1C` [SU012662], in “clinical”, the “AUC0–last” value is 53.2 (30.9) ng h ml^−1, the Cmax was 3.6 (32.5) ng ml^−1 and the Tlast is 24.0 h. In addition, in the data set “clinical” (25 mg), the “AUC0–last” value was 38.6 (54.4) ng h ml^−1 and the Cmax is 2.4 (51.4) ng ml^−1.

Values taken from article PMC2965864 (British Journal of Cancer, 2010).
